Measured values taken from ChEMBL document CHEMBL3045272, “Synthesis and fungicidal activities of novel bis(trifluoromethyl)phenyl-based strobilurins” (J Agric Food Chem, 2008).
≈ marks a conversion by molar mass, not a printed value.

Tests used:
[1] = system: Blumeria graminis; assay: Fungicidal activity against Blumeria graminis infected compound pre-treated wheat plants assessed as disease preventive activity at 1.5 ppm measured after 1 or 2 weeks; assay type: functional
[2] = system: Blumeria graminis; assay: Fungicidal activity against Blumeria graminis infected compound pre-treated wheat plants assessed as disease preventive activity at 3.1 ppm measured after 1 or 2 weeks; assay type: functional
[3] = system: Blumeria graminis; assay: Fungicidal activity against Blumeria graminis infected compound pre-treated wheat plants assessed as disease preventive activity at 6.2 ppm measured after 1 or 2 weeks; assay type: functional
[4] = system: Blumeria graminis; assay: Fungicidal activity against Blumeria graminis infected compound pre-treated wheat plants assessed as disease preventive activity at 500 ppm measured after 1 or 2 weeks; assay type: functional
[5] = system: Blumeria graminis; assay: Fungicidal activity against Blumeria graminis infected compound pre-treated wheat plants assessed as disease preventive activity at 100 ppm measured after 1 or 2 weeks; assay type: functional
[6] = system: Podosphaera fuliginea; assay: Fungicidal activity against Podosphaera fuliginea infected cucumber plants exposed to compound treatment 1 day post infection assessed as disease curative activity measured after 1 or 2 weeks; assay type: functional, organism-based
[7] = system: Podosphaera fuliginea; assay: Fungicidal activity against Podosphaera fuliginea infected cucumber plants exposed to compound treatment 1 day post infection assessed as disease curative activity at 0.78 mg/L measured after 1 or 2 weeks; assay type: functional
[8] = system: Podosphaera fuliginea; assay: Fungicidal activity against Podosphaera fuliginea infected cucumber plants exposed to compound treatment 1 day post infection assessed as disease curative activity at 1.56 mg/L measured after 1 or 2 weeks; assay type: functional
[9] = system: Blumeria graminis; assay: Fungicidal activity against Blumeria graminis infected compound pre-treated wheat plants assessed as disease preventive activity at 0.78 mg/L measured after 1 or 2 weeks; assay type: functional
[10] = system: Blumeria graminis; assay: Fungicidal activity against Blumeria graminis infected compound pre-treated wheat plants assessed as disease preventive activity at 1.56 mg/L measured after 1 or 2 weeks; assay type: functional
[11] = system: Blumeria graminis; assay: Fungicidal activity against Blumeria graminis infected compound pre-treated wheat plants assessed as disease preventive activity at 3.12 mg/L measured after 1 or 2 weeks; assay type: functional
[12] = system: Blumeria graminis; assay: Fungicidal activity against Blumeria graminis infected compound pre-treated wheat plants assessed as disease preventive activity at 6.25 mg/L measured after 1 or 2 weeks; assay type: functional
[13] = system: Podosphaera fuliginea; assay: Fungicidal activity against Podosphaera fuliginea infected cucumber plants exposed to compound treatment 1 day post infection assessed as disease curative activity at 3.12 mg/L measured after 1 or 2 weeks; assay type: functional
[14] = system: Podosphaera fuliginea; assay: Fungicidal activity against Podosphaera fuliginea infected cucumber plants exposed to compound treatment 1 day post infection assessed as disease curative activity at 6.25 mg/L measured after 1 or 2 weeks; assay type: functional
[15] = system: Blumeria graminis; assay: Fungicidal activity against Blumeria graminis infected wheat plants exposed to compound treatment 1 day post infection assessed as disease curative activity measured after 1 or 2 weeks; assay type: functional, organism-based
[16] = system: Blumeria graminis; assay: Fungicidal activity against Blumeria graminis infected wheat plants exposed to compound treatment 1 day post infection assessed as disease curative activity at 1.56 mg/L measured after 1 or 2 weeks; assay type: functional
[17] = system: Blumeria graminis; assay: Fungicidal activity against Blumeria graminis infected wheat plants exposed to compound treatment 1 day post infection assessed as disease curative activity at 0.78 mg/L measured after 1 or 2 weeks; assay type: functional
[18] = system: Blumeria graminis; assay: Fungicidal activity against Blumeria graminis infected wheat plants exposed to compound treatment 1 day post infection assessed as disease curative activity at 3.12 mg/L measured after 1 or 2 weeks; assay type: functional
[19] = system: Blumeria graminis; assay: Fungicidal activity against Blumeria graminis infected wheat plants exposed to compound treatment 1 day post infection assessed as disease curative activity at 6.25 mg/L measured after 1 or 2 weeks; assay type: functional
[20] = system: Podosphaera fuliginea; assay: Fungicidal activity against Podosphaera fuliginea infected compound pre-treated cucumber plants assessed as disease preventive activity at 0.78 mg/L measured after 1 or 2 weeks; assay type: functional
[21] = system: Podosphaera fuliginea; assay: Fungicidal activity against Podosphaera fuliginea infected compound pre-treated cucumber plants assessed as disease preventive activity at measured after 1 or 2 weeks; assay type: functional, organism-based
[22] = system: Podosphaera fuliginea; assay: Fungicidal activity against Podosphaera fuliginea infected compound pre-treated cucumber plants assessed as disease preventive activity at 1.56 mg/L measured after 1 or 2 weeks; assay type: functional
[23] = system: Podosphaera fuliginea; assay: Fungicidal activity against Podosphaera fuliginea infected compound pre-treated cucumber plants assessed as disease preventive activity at 3.12 mg/L measured after 1 or 2 weeks; assay type: functional
[24] = system: Podosphaera fuliginea; assay: Fungicidal activity against Podosphaera fuliginea infected compound pre-treated cucumber plants assessed as disease preventive activity at 6.25 mg/L measured after 1 or 2 weeks; assay type: functional
[25] = system: Blumeria graminis; assay: Fungicidal activity against Blumeria graminis infected compound pre-treated wheat plants assessed as disease preventive activity measured after 1 or 2 weeks; assay type: functional, organism-based

CCO/C(=N\OCc1ccccc1/C(=C\OC)C(=O)OC)c1cc(C(F)(F)F)cc(C(F)(F)F)c1
Activity [1]: 35% | Activity [2]: 60% | Activity [3]: 90% | Activity [4]: 100% | Activity [5]: 100%

CNC(=O)/C(=N/OC)c1ccccc1CO/N=C(\OC)c1cc(C(F)(F)F)cc(C(F)(F)F)c1
Activity [4]: 90%

CO/N=C(/C1=NOCCO1)c1ccccc1CO/N=C(\OC)c1cc(C(F)(F)F)cc(C(F)(F)F)c1
EC50 [6]: 0.8 µg/mL (≈ 1.54 µM) | EC90 [6]: 1.5 µg/mL (≈ 2.89 µM) | Activity [7]: 60% | Activity [8]: 80% | Activity [9]: 30% | Activity [10]: 75% | Activity [11]: 98% | Activity [12]: 100% | Activity [1]: 95% | Activity [2]: 96% | Activity [3]: 100% | Activity [13]: 100% | Activity [14]: 100% | EC50 [15]: 1 µg/mL (≈ 1.93 µM) | EC90 [15]: 2.4 µg/mL (≈ 4.62 µM) | Activity [16]: 70% | Activity [17]: 35% | Activity [18]: 90% | Activity [19]: 100% | Activity [20]: 55% | EC50 [21]: 0.8 µg/mL (≈ 1.54 µM) | EC90 [21]: 1.6 µg/mL (≈ 3.08 µM) | Activity [22]: 75% | Activity [23]: 100% | Activity [24]: 100% | EC50 [25]: 0.9 µg/mL (≈ 1.73 µM) | EC90 [25]: 2 µg/mL (≈ 3.85 µM) | Activity [4]: 100% | Activity [5]: 100%

CO/N=C(/C(=O)OC)c1ccccc1CO/N=C(\OC)c1cc(C(F)(F)F)cc(C(F)(F)F)c1
Activity [1]: 80% | Activity [2]: 98% | Activity [3]: 100% | Activity [4]: 100% | Activity [5]: 100%

COC(=O)N(OC)c1ccccc1CO/N=C(\OC)c1cc(C(F)(F)F)cc(C(F)(F)F)c1
Activity [1]: 10% | Activity [2]: 60% | Activity [3]: 80% | Activity [4]: 100% | Activity [5]: 100%

CN/C(=N\OCc1ccccc1/C(=C\OC)C(=O)OC)c1cc(C(F)(F)F)cc(C(F)(F)F)c1
Activity [1]: 25% | Activity [2]: 65% | Activity [3]: 90% | Activity [4]: 100% | Activity [5]: 100%

CN/C(=N\OCc1ccccc1/C(=N\OC)C(=O)OC)c1cc(C(F)(F)F)cc(C(F)(F)F)c1
Activity [1]: 70% | Activity [2]: 90% | Activity [3]: 93% | Activity [4]: 100% | Activity [5]: 100%

CO/C=C(/C(=O)OC)c1ccccc1CO/N=C(\N)c1cc(C(F)(F)F)cc(C(F)(F)F)c1
Activity [1]: 40% | Activity [2]: 75% | Activity [3]: 90% | Activity [4]: 100% | Activity [5]: 95%

CO/N=C(/C(=O)OC)c1ccccc1CO/N=C(\N)c1cc(C(F)(F)F)cc(C(F)(F)F)c1
Activity [4]: 30%

CCO/C(=N\OCc1ccccc1/C(=N\OC)C(=O)OC)c1cc(C(F)(F)F)cc(C(F)(F)F)c1
Activity [1]: 15% | Activity [2]: 50% | Activity [3]: 80% | Activity [4]: 100% | Activity [5]: 100%

CCS/C(=N\OCc1ccccc1/C(=C\OC)C(=O)OC)c1cc(C(F)(F)F)cc(C(F)(F)F)c1
Activity [4]: 85%

CCS/C(=N\OCc1ccccc1/C(=N\OC)C(=O)OC)c1cc(C(F)(F)F)cc(C(F)(F)F)c1
Activity [4]: 85%

CO/C=C(/C(=O)OC)c1ccccc1CO/N=C(\SC(C)C)c1cc(C(F)(F)F)cc(C(F)(F)F)c1
Activity [4]: 85%

CO/N=C(/C(=O)OC)c1ccccc1CO/N=C(\SC(C)C)c1cc(C(F)(F)F)cc(C(F)(F)F)c1
Activity [4]: 85%

CO/C=C(/C(=O)OC)c1ccccc1CO/N=C(/c1cc(C(F)(F)F)cc(C(F)(F)F)c1)[S+](C)[O-] (centres undefined)
Activity [4]: 70%

CO/C=C(/C(=O)OC)c1ccccc1CO/N=C(/c1cc(C(F)(F)F)cc(C(F)(F)F)c1)S(C)(=O)=O
Activity [4]: 70%

CO/C=C(/C(=O)OC)c1ccccc1CO/N=C(\SC)c1cc(C(F)(F)F)cc(C(F)(F)F)c1
Activity [1]: 75% | Activity [2]: 93% | Activity [3]: 98% | Activity [4]: 100% | Activity [5]: 100%

CNC(=O)/C(=N/OC)c1ccccc1CO/N=C(\SC)c1cc(C(F)(F)F)cc(C(F)(F)F)c1
Activity [2]: 25% | Activity [3]: 40% | Activity [4]: 100% | Activity [5]: 100%

CO/N=C(/C1=NOCCO1)c1ccccc1CO/N=C(\SC)c1cc(C(F)(F)F)cc(C(F)(F)F)c1
Activity [2]: 10% | Activity [3]: 20% | Activity [4]: 100% | Activity [5]: 100%

CO/N=C(/C(=O)OC)c1ccccc1CO/N=C(\SC)c1cc(C(F)(F)F)cc(C(F)(F)F)c1
Activity [4]: 100% | Activity [5]: 80%

COC(=O)N(OC)c1ccccc1CO/N=C(\SC)c1cc(C(F)(F)F)cc(C(F)(F)F)c1
Activity [2]: 30% | Activity [3]: 65% | Activity [4]: 90% | Activity [5]: 90%

CO/C=C(/C(=O)OC)c1ccccc1CO/N=C(\OC)c1cc(C(F)(F)F)cc(C(F)(F)F)c1
EC50 [6]: 0.8 µg/mL (≈ 1.63 µM) | EC90 [6]: 1.4 µg/mL (≈ 2.85 µM) | Activity [7]: 56% | Activity [8]: 92% | Activity [9]: 20% | Activity [10]: 60% | Activity [11]: 81% | Activity [12]: 100% | Activity [1]: 98% | Activity [2]: 100% | Activity [3]: 100% | Activity [13]: 100% | Activity [14]: 100% | EC50 [15]: 1.5 µg/mL (≈ 3.05 µM) | EC90 [15]: 4.8 µg/mL (≈ 9.77 µM) | Activity [16]: 50% | Activity [17]: 20% | Activity [18]: 82% | Activity [19]: 94% | Activity [20]: 59% | EC50 [21]: 0.8 µg/mL (≈ 1.63 µM) | EC90 [21]: 1.5 µg/mL (≈ 3.05 µM) | Activity [22]: 80% | Activity [23]: 100% | Activity [24]: 100% | EC50 [25]: 1.2 µg/mL (≈ 2.44 µM) | EC90 [25]: 2.8 µg/mL (≈ 5.7 µM) | Activity [4]: 100% | Activity [5]: 100%

CO/N=C(\C(=O)OC)c1ccccc1CO/N=C(\C)c1cccc(C(F)(F)F)c1
Activity [1]: 75% | Activity [2]: 98% | Activity [3]: 100% | Activity [4]: 100% | Activity [5]: 100%

CO/C=C(/C(=O)OC)c1ccccc1Oc1cc(Oc2ccccc2C#N)ncn1 [AZOXYSTROBIN]
EC50 [6]: 0.8 µg/mL (≈ 1.98 µM) | EC90 [6]: 2.1 µg/mL (≈ 5.21 µM) | Activity [7]: 55% | Activity [8]: 80% | Activity [9]: 20% | Activity [10]: 50% | Activity [11]: 65% | Activity [12]: 90% | Activity [1]: 62% | Activity [2]: 80% | Activity [3]: 85% | Activity [13]: 90% | Activity [14]: 100% | EC50 [15]: 1.7 µg/mL (≈ 4.21 µM) | EC90 [15]: 5.9 µg/mL (≈ 14.6 µM) | Activity [16]: 52% | Activity [17]: 15% | Activity [18]: 78% | Activity [19]: 89% | Activity [20]: 35% | EC50 [21]: 1.2 µg/mL (≈ 2.97 µM) | EC90 [21]: 4.5 µg/mL (≈ 11.2 µM) | Activity [22]: 60% | Activity [23]: 80% | Activity [24]: 95% | EC50 [25]: 1.7 µg/mL (≈ 4.21 µM) | EC90 [25]: 7 µg/mL (≈ 17.4 µM) | Activity [4]: 100% | Activity [5]: 100%

CNC(=O)/C(=N/OC)c1ccccc1Oc1ccccc1 [METOMINOSTROBIN]
Activity [1]: 65% | Activity [2]: 85% | Activity [3]: 95% | Activity [4]: 100% | Activity [5]: 100%
